Drawing on US8378117B2 (priority 2005, dated 2013), this text covers inhibition and IC50 for 19 compounds.

Read-outs that look alike come from different tables or passages of the source.

The target of experiment [1] is T1, CB2 receptor (Homo sapiens, UniProt P34972).
T1 construct: expressed in transfected cells
Briefly: Binding assay for CB2 agonists or inverse agonists (SK-N-MC membranes, [3H]-CP-55,940). In a few lines:
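Membranes from SK-N-MC cells stably expressing human CB2 were incubated with radioligand and test compounds for 90 min at 30 °C in Tris-HCl buffer, pH 7.5, with MgCl2, EDTA and fatty-acid-free BSA. Filter-bound radioactivity was counted; IC50 was derived by linear regression of percent inhibition.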

The target of experiment [2] is T2, CB1 receptor (Homo sapiens, UniProt P21554).
T2 construct: expressed in transfected cells
Briefly: Binding assay for CB1 agonists or inverse agonists (SK-N-MC membranes, [3H]-CP-55,940). In a few lines: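 Membranes from SK-N-MC cells stably expressing human CB1 incubated with compound and [3H]-CP-55,940 ([…]) for 90 min at 30° C in Tris-HCl pH 7.5, MgCl2, EDTA, fatty-acid-free BSA. Non-specific binding defined with 10 uM WIN 55,212; filtration, scintillation count; IC50 by linear regression.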

The mark [3] stands for this setting: test concentration 0.2 μM (footnote 2), read-out: CB2 receptor binding percent inhibition.
Where [4] appears, read: read-out: CB1 receptor binding percent inhibition, test concentration 0.2 μM (footnote 2).
Where [5] appears, read: read-out: CB2 receptor binding percent inhibition, test concentration 0.2 μM (footnote 2).

T1 sequence (P34972 whole entry): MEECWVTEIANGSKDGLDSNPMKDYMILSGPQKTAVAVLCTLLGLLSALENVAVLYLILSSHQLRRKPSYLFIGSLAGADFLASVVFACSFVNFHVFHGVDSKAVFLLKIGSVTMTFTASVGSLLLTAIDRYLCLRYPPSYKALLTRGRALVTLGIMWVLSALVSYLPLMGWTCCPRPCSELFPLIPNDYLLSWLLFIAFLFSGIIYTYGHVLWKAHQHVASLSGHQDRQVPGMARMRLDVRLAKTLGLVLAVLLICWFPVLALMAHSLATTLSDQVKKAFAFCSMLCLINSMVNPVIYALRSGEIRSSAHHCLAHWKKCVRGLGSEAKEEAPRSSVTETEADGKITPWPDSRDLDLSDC
T2 sequence (P21554 whole entry): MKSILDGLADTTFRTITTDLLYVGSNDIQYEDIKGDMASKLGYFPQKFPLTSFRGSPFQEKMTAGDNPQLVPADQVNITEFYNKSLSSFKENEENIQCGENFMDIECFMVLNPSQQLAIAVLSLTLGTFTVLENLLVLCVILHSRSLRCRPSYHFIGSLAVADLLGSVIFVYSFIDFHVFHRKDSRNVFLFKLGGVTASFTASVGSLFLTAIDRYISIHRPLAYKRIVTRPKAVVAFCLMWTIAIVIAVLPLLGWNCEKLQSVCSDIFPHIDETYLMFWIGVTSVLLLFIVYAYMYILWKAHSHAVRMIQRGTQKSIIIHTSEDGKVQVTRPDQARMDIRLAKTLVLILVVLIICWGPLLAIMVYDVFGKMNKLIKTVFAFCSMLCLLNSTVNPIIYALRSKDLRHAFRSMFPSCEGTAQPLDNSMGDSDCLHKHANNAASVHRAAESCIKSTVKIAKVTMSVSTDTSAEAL

Consider `O=C(NN1CCOCC1)c1nn(-c2ccncc2)c2c1CCCC/C2=C\c1ccc(Cl)cc1` [Cpd 183, (8E)-8-(4-chloro-benzylidene)-1-pyridin-4-yl-1,4,5,6,7,8-hexahydro-cycloheptapyrazole-3-carboxylic acid morpholin-4-ylamide], for which the inhibition at 0.2 µM in experiment [1] (setting [3]) worked out at 14%; in experiment [2] (setting [4]), 0%.

Regarding `O=C(N[C@@H](CO)Cc1ccccc1)c1nn(-c2nccc(C(F)(F)F)n2)c2c1CCCCC2Cc1cccc(Cl)c1` (stereo partly drawn) [Cpd 186, 8-(3-chloro-benzyl)-1-(4-trifluoromethyl-pyrimidin-2-yl)-1,4,5,6,7,8-hexahydro-cycloheptapyrazole-3-carboxylic acid [(1R)-1-benzyl-2-hydroxy-ethyl]-amide], the inhibition at 0.2 µM in experiment [1] (setting [3]) stood at 58%; in experiment [2] (setting [4]), 12%.

With `O=C(N[C@@H](CCl)Cc1ccccc1)c1nn(-c2nccc(C(F)(F)F)n2)c2c1CCCCC2Cc1cccc(Cl)c1` (stereo partly drawn) [Cpd 187, 8-(3-chloro-benzyl)-1-(4-trifluoromethyl-pyrimidin-2-yl)-1,4,5,6,7,8-hexahydro-cycloheptapyrazole-3-carboxylic acid [(1R)-1-benzyl-2-chloro-ethyl]-amide], the inhibition at 0.2 µM is 23% in experiment [1] (setting [3]) and 12% in experiment [2] (setting [4]).

`C[C@H](NC(=O)c1nn(-c2ccccc2Cl)c2c1CCCC/C2=C\c1ccc(Cl)cc1)c1ccccc1` [Cpd 191, (8E)-8-(4-chloro-benzylidene)-1-(2-chloro-phenyl)-1,4,5,6,7,8-hexahydro-cycloheptapyrazole-3-carboxylic acid [(1S)-1-phenyl-ethyl]-amide]: the inhibition at 0.2 µM amounted to 7% in experiment [1] (setting [5]) and 47% in experiment [2] (setting [4]).

On to `C[C@H](NC(=O)c1nn(-c2ccccc2Cl)c2c1CCCC/C2=C\c1ccc(Cl)cc1)C1CCCCC1` [Cpd 192, (8E)-8-(4-chloro-benzylidene)-1-(2-chloro-phenyl)-1,4,5,6,7,8-hexahydro-cycloheptapyrazole-3-carboxylic acid [(1S)-1-cyclohexyl-ethyl]-amide], for which the results for the inhibition at 0.2 µM in experiment [1] (setting [5]) and in experiment [2] (setting [4]) were 7% and 45%, respectively.

For the compound `O=C(NN1CCCCC1)c1nn(-c2ccccc2Cl)c2c1CCCC/C2=C\c1ccc(Cl)cc1` [Cpd 193, (8E)-8-(4-chloro-benzylidene)-1-(2-chloro-phenyl)-1,4,5,6,7,8-hexahydro-cycloheptapyrazole-3-carboxylic acid piperidin-1-ylamide], the inhibition at 0.2 µM in experiment [1] (setting [3]) worked out at 16%; in experiment [2] (setting [4]), 43%.

With `O=C(NN1CCOCC1)c1nn(-c2ccccc2Cl)c2c1CCCC/C2=C\c1ccc(Cl)cc1` [Cpd 194, (8E)-8-(4-chloro-benzylidene)-1-(2-chloro-phenyl)-1,4,5,6,7,8-hexahydro-cycloheptapyrazole-3-carboxylic acid morpholin-4-ylamide], the values for the inhibition at 0.2 µM in experiment [1] (setting [3]) and in experiment [2] (setting [4]) were 10% and 19%, respectively.

Regarding `C[C@@H](NC(=O)c1nn(-c2cc(Cl)ccc2Cl)c2c1CCCC/C2=C\c1ccc(Cl)cc1)c1ccccc1` [Cpd 195, (8E)-8-(4-chloro-benzylidene)-1-(2,5-dichloro-phenyl)-1,4,5,6,7,8-hexahydro-cycloheptapyrazole-3-carboxylic acid [(1R)-1-phenyl-ethyl]-amide], the results for the inhibition at 0.2 µM in experiment [1] (setting [5]) and in experiment [2] (read-out: CB1 receptor binding percent inhibition) were 37% and 63%, respectively.

Regarding `C[C@@H](NC(=O)c1nn(-c2cc(Cl)ccc2Cl)c2c1CCCC/C2=C\c1ccc(Cl)cc1)C1CCCCC1` [Cpd 196, (8E)-8-(4-chloro-benzylidene)-1-(2,5-dichloro-phenyl)-1,4,5,6,7,8-hexahydro-cycloheptapyrazole-3-carboxylic acid [(1R)-1-cyclohexyl-ethyl]-amide], the inhibition at 0.2 µM stood at 49% in experiment [1] (setting [5]) and 67% in experiment [2] (setting [4]).

Turning to `O=C(NN1CCCCC1)c1nn(-c2cc(Cl)ccc2Cl)c2c1CCCC/C2=C\c1ccc(Cl)cc1` [Cpd 199, (8E)-8-(4-chloro-benzylidene)-1-(2,5-dichloro-phenyl)-1,4,5,6,7,8-hexahydro-cycloheptapyrazole-3-carboxylic acid piperidin-1-ylamide], the inhibition at 0.2 µM in experiment [1] (setting [3]) and in experiment [2] (setting [4]) was 30% each time.

As for `O=C(NN1CCOCC1)c1nn(-c2cc(Cl)ccc2Cl)c2c1CCCC/C2=C\c1ccc(Cl)cc1` [Cpd 200, (8E)-8-(4-chloro-benzylidene)-1-(2,5-dichloro-phenyl)-1,4,5,6,7,8-hexahydro-cycloheptapyrazole-3-carboxylic acid morpholin-4-ylamide], the inhibition at 0.2 µM in experiment [1] (setting [3]) was 6%; in experiment [2] (setting [4]) it was 15%.

As to `O=C(c1nn(-c2cc(Cl)ccc2Cl)c2c1CCCC/C2=C\c1ccc(Cl)cc1)N1CCOCC1` [Cpd 201, (8E)-[8-(4-chloro-benzylidene)-1-(2,5-dichloro-phenyl)-1,4,5,6,7,8-hexahydro-cycloheptapyrazol-3-yl]-morpholin-4-yl-methanone], the inhibition at 0.2 µM in experiment [1] (setting [3]) came out at 0%; in experiment [2] (setting [4]), 11%.

Regarding `O=C(N[C@@H](CO)c1ccccc1)c1nn(-c2ccc(Cl)cc2Cl)c2c1CCCC/C2=C\c1ccc(F)cc1` [Cpd 203, (8E)-1-(2,4-dichloro-phenyl)-8-(4-fluoro-benzylidene)-1,4,5,6,7,8-hexahydro-cycloheptapyrazole-3-carboxylic acid [(1R)-2-hydroxy-1-phenyl-ethyl]-amide], the inhibition at 0.2 µM in experiment [1] (setting [5]) was determined as 30%; in experiment [2] (setting [4]), 37%.

Regarding `O=C(c1n[nH]c2c1CCCC/C2=C\c1ccc(Cl)cc1)N1CCCCC1` [Cpd 223, (8E)-[8-(4-chloro-benzylidene)-1,4,5,6,7,8-hexahydro-cycloheptapyrazol-3-yl]-piperidin-1-yl-methanone], the figures for the inhibition at 0.2 µM in experiment [1] (setting [3]) and in experiment [2] (setting [4]) were 58% and 40%, respectively.

`C[C@@H](NS(=O)(=O)C=Cc1n[nH]c2c1CCCCC2Cc1cccc(F)c1)c1ccccc1` (stereo partly drawn) [Cpd 235, 2-[8-(3-fluoro-benzyl)-1,4,5,6,7,8-hexahydro-cycloheptapyrazol-3-yl]-ethenesulfonic acid [(1R)-1-phenyl-ethyl]-amide]: the inhibition at 0.2 µM in experiment [1] (setting [3]) worked out at 41%; in experiment [2] (setting [4]), 0%.

Consider `C[C@@H](NS(=O)(=O)/C=C/c1n[nH]c2c1CCCC/C2=C\c1ccc(Cl)cc1)c1ccccc1` [Cpd 236, (2E,8E)-2-[8-(4-chloro-benzylidene)-1,4,5,6,7,8-hexahydro-cycloheptapyrazol-3-yl]-ethenesulfonic acid [(1R)-1-phenyl-ethyl]-amide], for which the inhibition at 0.2 µM in experiment [1] (setting [3]) turned out to be 41%; in experiment [2] (setting [4]), 0%.

For the compound `Cn1nc(C(=O)n2ccnc2)c2c1/C(=C/c1cccc(F)c1)CCCC2` [Cpd 243, (8E)-[8-(3-fluoro-benzylidene)-1-methyl-1,4,5,6,7,8-hexahydro-cycloheptapyrazol-3-yl]-imidazol-1-yl-methanone], the inhibition at 0.2 µM in experiment [1] (setting [3]) and in experiment [2] (setting [4]) was 0% in each case.

On to `O=C(N[C@H](CO)Cc1ccc(O)cc1)c1n[nH]c2c1CCCC/C2=C\c1cccc(Cl)c1` [Cpd 246, (8E)-(2S)-8-(3-chloro-benzylidene)-1,4,5,6,7,8-hexahydro-cycloheptapyrazole-3-carboxylic acid [1-hydroxymethyl-2-(4-hydroxy-phenyl)-ethyl]-amide], for which the results for the inhibition at 0.2 µM in experiment [1] (setting [3]) and in experiment [2] (setting [4]) were 15% and 0%, respectively.

As for `COC(=O)[C@@H](Cc1ccc(F)cc1)NC(=O)c1nn(C)c2c1CCCC/C2=C\c1cccc(F)c1` [Cpd 248, (8E)-(2R)-2-{[8-(3-fluoro-benzylidene)-1-methyl-1,4,5,6,7,8-hexahydro-cycloheptapyrazole-3-carbonyl]-amino}-3-(4-fluoro-phenyl)-propionic acid methyl ester], the 50% inhibitory concentration (IC50) was 3 nM in experiment [1] (Cannabinoid CB2 Receptor Binding IC50, calculated by linear regression from percent inhibition at various test concentrations) and 7 nM in experiment [2] (Cannabinoid CB1 Receptor Binding IC50, calculated by linear regression from percent inhibition at various test concentrations). In addition, the inhibition at 0.2 µM worked out at 96% in experiment [1] (setting [5]) and 89% in experiment [2] (setting [4]).
